{"source": "patent EP0370656A1", "about": "“Treatment of myelosuppression associated with acquired immune deficiency” (SCHERING CORPORATION, priority 1988, dated 1990)", "key": {"[1]": {"tested_on": "white blood cell (WBC) count", "conditions": "for WBC (per cm³): GM-CSF 0 µg/kg", "from_the_text": "A person was diagnosed as having AIDS and CMV retinitis. […]"}, "[2]": {"tested_on": "cytomegalovirus retinitis", "conditions": "intravenous, 7.5 to 15 mg per kilogram per day; patients with cytomegalovirus retinitis; cited from earlier work"}}, "note": "Where two headings read alike, the source gives them in different places.", "data": [{"smiles": "Nc1nc(O)c2ncn(COC(CO)CO)c2n1", "note": "[DHPG, 9-(1,3-dihydroxy-2-propoxymethyl) guanine]", "values": [{"measurement": "WBC (per cm³)", "setting": "[1]; Example 1, person, Day 0, % dose of DHPG changed to 50", "value": 1000, "unit": "per cm³"}, {"measurement": "result of DHPG treatment (adverse effect)", "setting": "[1]; Example 1, DHPG commenced at Day 0", "value": "life threatening myelosuppression"}, {"measurement": "WBC (per cm³)", "setting": "[1]; Example 1, Day 29, % dose of DHPG changed to 50", "value": 700, "unit": "per cm³"}, {"measurement": "WBC (per cm³)", "setting": "[1]; Example 1, Day 34, % dose of DHPG changed to 0", "value": 300, "unit": "per cm³"}, {"measurement": "WBC (per cm³)", "setting": "[1]; Example 1, Day 49 (DHPG at 0 % since Day 34), % dose of DHPG changed to 100", "value": 1900, "unit": "per cm³"}, {"measurement": "WBC (per cm³)", "setting": "[1]; Example 1, Day 52, % dose of DHPG changed to 50", "value": 700, "unit": "per cm³"}, {"measurement": "major adverse effect of DHPG therapy", "setting": "[2]", "value": "dose related myelosuppression, especially neutropenia"}]}]}
